Measurements reported in US9000189B2, “Biphenyl-substituted spirocyclic ketoenols” (Bayer CropScience AG, priority 2006, dated 2015).
Like-named read-outs stand apart in the source and are kept apart here.

Columns and labels:
[1] = Determination of the log P values by HPLC on a reversed-phase column (C18), acidic range; type: physicochemical; details: HPLC reversed-phase C18, 43° C., acidic range (pH 2.3)
Description: Determination of the Log P Values
The log P values given in the table were determined in accordance with EEC Directive 79/831 Annex V.A8 by HPLC (High Performance Liquid Chromatography) on a reversed-phase column (C18). Temperature: 43° C.
Mobile phases for the determination in the acidic range (pH 2.3): 0.1% aqueous phosphoric acid, acetonitrile; linear gradient from 10% acetonitrile to 90% acetonitrile
The calibration was carried out using unbranched alkan-2-ones (having 3 to 16 carbon atoms) with known log P values (determination of the log P values by the retention times using linear interpolation between two successive alkanones).
The lambda max values were determined in the maxima of the chromatographic signals using the UV spectra from 200 nm to 400 nm.

[2] = system: green peach aphid (Myzus persicae); test: Example 3: Myzus test (MYZUPE spray treatment); type: in vivo; details: 144 h, read-out: efficacy (effect in %, aphids killed)
[3] = system: larvae of the mustard beetle (Phaedon cochleariae); test: Example 1: Phaedon test (PHAECO spray treatment); details: 168 h, read-out: efficacy (effect in %, beetle larvae killed)
[4] = reversed-phase HPLC column (C18)

For `O=C1OC2(CCCCC2)C(O)=C1c1cc(-c2ccc(F)c(F)c2)ccc1Cl` [Example I-2-a-8], the logP [1] was 3.48.
With `O=C1OC2(CCCCC2)C(O)=C1c1cc(-c2cc(F)c(F)c(F)c2)ccc1Cl` [Example I-2-a-9] the logP [1] was 3.65.
`O=C1OC2(CCCCC2)C(O)=C1c1cc(-c2ccc(F)cc2)ccc1Cl` [Example I-2-a-10] showed a logP [1] of 3.37.
Work on `Cc1ccc(-c2ccc(F)cc2)c(C)c1C1=C(O)C2(CCOCC2)OC1=O` [Example I-2-a-11] yielded a logP [1] of 2.76.
In the case of `Cc1ccc(-c2ccc(F)cc2)cc1C1=C(O)C2(CCOCC2)OC1=O` [Example I-2-a-12], the logP [1] is reported as 2.62.
Molecule `Cc1ccc(-c2ccc(F)c(F)c2)cc1C1=C(O)C2(CCOCC2)OC1=O` [Example I-2-a-13] has a logP [1] of 2.69.
With `Cc1ccc(-c2cc(F)c(F)c(F)c2)cc1C1=C(O)C2(CCOCC2)OC1=O` [Example I-2-a-14] the logP [1] was 2.87.
For `Cc1ccc(-c2ccc(F)cc2)cc1C1=C(O)C2(CCCCC2)OC1=O` [Example I-2-a-15], the chromatographic logP [1] was 3.4, the pest or weed control at 500 g/ha [2] was ≥ 80% and the pest or weed control at 500 g/ha [3] was ≥ 80%.
Molecule `Cc1ccc(-c2ccc(F)c(F)c2)c(C)c1C1=C(O)C2(CCOCC2)OC1=O` [Example I-2-a-16] has a logP [1] of 2.88.
In the case of `Cc1ccc(-c2ccc(F)cc2)cc1C1=C(OC(=O)C(C)C)C2(CCCC2)OC1=O` [Example I-2-b-1], the chromatographic logP [1, 4] is reported as 4.85.
In the case of `Cc1ccc(-c2ccc(F)cc2)c(C)c1C1=C(OC(=O)C(C)C)C2(CCOCC2)OC1=O` [Example I-2-b-2], the pest or weed control at 500 g/ha [3] is reported as ≥ 80%.
In the case of `Cc1ccc(-c2ccc(F)c(F)c2)c(C)c1C1=C(OC(=O)C(C)C)C2(CCOCC2)OC1=O` [Example I-2-b-3], the pest or weed control at 500 g/ha ([2]; application rate 500 g/ha, after 6 d) is reported as ≥ 80%.
In the case of `CCOC(=O)OC1=C(c2cc(-c3ccc(F)cc3)ccc2C)C(=O)OC12CCCCC2` [Example I-2-c-1], the chromatographic logP [1] is reported as 4.84, the pest or weed control at 500 g/ha [2] is reported as ≥ 80% and the pest or weed control at 500 g/ha [3] is reported as ≥ 80%.
For `CCOC(=O)C1(OC(=O)Cc2cc(-c3ccc(F)cc3)ccc2C)CCCCC1` [III-1], the chromatographic logP [1, 4] was 5.43.
`CCOC(=O)C1(OC(=O)Cc2cc(Br)ccc2C)CCCC1` [III-1′] gave a chromatographic logP [1, 4] of 4.52.
